The target in test [1] is human GLP-1 receptor (hGLP-1R) (Homo sapiens, UniProt P43220). As to the kind of experiment: cAMP production (HTRF) in CHO cells expressing hGLP-1R. In kind it is cell-based. More on the design: expressed in transfected cells. The settings on record: for EC50: Table 6, peptides modified at position 17, cAMP in CHO hGLP-1R cells, geometric mean, read-out: hGLP-1R EC50; for % Relative Potency Ratio: Table 6, % GLP-1R activity relative to GLP-1 / % GlucR activity relative to glucagon. In a few lines: (§1)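 Read-out: HTRF cAMP (anti-cAMP cryptate donor, cAMP-d2 acceptor in conjugate/lysis buffer), converted to % Delta F and fitted by 4-parameter logistic for EC50. Cell densities were 1×10^5 cells/mL (hGLP-1R) or 2×10^5 cells/mL (hGCGR). Stimulation lasted 30 min at room temperature.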
Sequence of human GLP-1 receptor (hGLP-1R) (P43220 24-463): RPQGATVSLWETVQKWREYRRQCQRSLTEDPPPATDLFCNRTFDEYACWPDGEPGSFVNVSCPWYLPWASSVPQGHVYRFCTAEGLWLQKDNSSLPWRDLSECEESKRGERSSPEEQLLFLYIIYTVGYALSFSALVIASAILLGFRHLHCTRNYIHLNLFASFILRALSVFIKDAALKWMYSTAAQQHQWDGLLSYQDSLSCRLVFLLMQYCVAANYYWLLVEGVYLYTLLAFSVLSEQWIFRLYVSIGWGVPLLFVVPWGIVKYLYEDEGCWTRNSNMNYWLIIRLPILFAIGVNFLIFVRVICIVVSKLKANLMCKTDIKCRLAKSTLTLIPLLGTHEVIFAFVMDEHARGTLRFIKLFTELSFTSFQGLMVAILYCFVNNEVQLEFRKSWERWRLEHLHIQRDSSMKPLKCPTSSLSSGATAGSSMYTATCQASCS
For orientation: Changes in cAMP serve as a functional read-out for many G protein-coupled receptors.

Test [2] has as its target human glucagon receptor (hGCGR) (Homo sapiens, UniProt P47871). As to the kind of experiment: cAMP production (HTRF) in CHO cells expressing hGCGR. Type of test: cell-based. More on the design: expressed in transfected cells. Particulars: Table 6, peptides modified at position 17; cAMP in CHO hGCGR cells; geometric mean; read-out: hGluc-R EC50. In a few lines:
as §1

SMILES strings stand for the structures. Starred links: 1 amine or outer side, 2 acyl side, 3 side chain; linkers in the order of their positions; H or OH if unused. Non-standard residues stand in square brackets, D forms with d. Residues, ends and D or L forms follow the SMILES beside them. Groups on a side chain read outwards from the residue. *: point of attachment. γGlu = O=C(O)[C@H](CCC(=O)[*:2])N[*:1]; Stearoyl = CCCCCCCCCCCCCCCCCC(=O)*; Palmitoyl = CCCCCCCCCCCCCCCC(=O)*; αMeF = C[C@](N)(Cc1ccccc1)C(=O)O; PEG2 = NCCOCCOCCC(=O)O; Aib = CC(C)(N)C(=O)O

Sequence of human glucagon receptor (hGCGR) (P47871 26-477): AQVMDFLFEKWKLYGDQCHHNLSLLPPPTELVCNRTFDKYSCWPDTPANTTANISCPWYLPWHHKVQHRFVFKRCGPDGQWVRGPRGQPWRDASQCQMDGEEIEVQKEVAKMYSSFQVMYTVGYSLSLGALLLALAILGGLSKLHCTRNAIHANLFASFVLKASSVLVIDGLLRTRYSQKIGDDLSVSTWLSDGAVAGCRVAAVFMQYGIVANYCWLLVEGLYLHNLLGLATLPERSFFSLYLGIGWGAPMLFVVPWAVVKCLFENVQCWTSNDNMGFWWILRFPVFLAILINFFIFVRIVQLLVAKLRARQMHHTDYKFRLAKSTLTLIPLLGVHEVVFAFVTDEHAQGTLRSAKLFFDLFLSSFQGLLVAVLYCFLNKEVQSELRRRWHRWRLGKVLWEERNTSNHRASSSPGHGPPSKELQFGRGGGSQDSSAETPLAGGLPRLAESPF

In the case of `CCCCCCCCCCCCCCCCCC(=O)N[C@@H](CCC(=O)N[C@@H](CCC(=O)NCCOCCOCCC(=O)NCCOCCOCCC(=O)NCCCC[C@H](NC(=O)[C@H](CO)NC(=O)[C@H](CC(=O)O)NC(=O)[C@H](CC(C)C)NC(=O)[C@](C)(Cc1ccccc1)NC(=O)[C@H](CCCCN)NC(=O)[C@H](CO)NC(=O)[C@@H](NC(=O)[C@H](CC(=O)O)NC(=O)[C@H](CO)NC(=O)[C@@H](NC(=O)[C@](C)(Cc1ccccc1)NC(=O)[C@H](CO)NC(=O)CNC(=O)[C@H](CCC(N)=O)NC(=O)C(C)(C)NC(=O)[C@@H](N)Cc1c[nH]cn1)[C@@H](C)O)C(C)C)C(=O)N[C@@H](C)C(=O)N[C@@H](C)C(=O)N[C@@H](CCC(N)=O)C(=O)N[C@@H](CC(=O)O)C(=O)N[C@@](C)(Cc1ccccc1)C(=O)N[C@H](C(=O)N[C@@H](CCC(N)=O)C(=O)NC(C)(C)C(=O)N[C@@H](CC(C)C)C(=O)N[C@H](C(=O)N[C@@H](CO)C(=O)NCC(N)=O)[C@@H](C)CC)C(C)C)C(=O)O)C(=O)O` [Peptide 77] (H-H[Aib]QGS[αMeF]TSDVSK[αMeF]LDSK([PEG2-PEG2-γGlu-γGlu-Stearoyl])AAQD[αMeF]VQ[Aib]LISG-NH2; N-terminus assumed), in test [1], the half-maximal effective concentration (EC50) was found to be 8.68 pM and the “% Relative Potency Ratio” value is reported as 55.5. The 50% effective concentration (EC50) in test [2] was 243 pM.

For the compound `CCCCCCCCCCCCCCCC(=O)N[C@@H](CCC(=O)N[C@@H](CCC(=O)NCCOCCOCCC(=O)NCCOCCOCCC(=O)NCCCC[C@H](NC(=O)[C@H](CO)NC(=O)[C@H](CC(=O)O)NC(=O)[C@H](CC(C)C)NC(=O)[C@](C)(Cc1ccccc1)NC(=O)[C@H](CCCCN)NC(=O)[C@H](CO)NC(=O)[C@@H](NC(=O)[C@H](CC(=O)O)NC(=O)[C@H](CO)NC(=O)[C@@H](NC(=O)[C@](C)(Cc1ccccc1)NC(=O)[C@H](CO)NC(=O)CNC(=O)[C@H](CCC(N)=O)NC(=O)[C@H](CO)NC(=O)[C@@H](N)Cc1c[nH]cn1)[C@@H](C)O)C(C)C)C(=O)N[C@@H](C)C(=O)N[C@@H](C)C(=O)N[C@@H](CCC(N)=O)C(=O)N[C@@H](CC(=O)O)C(=O)N[C@@](C)(Cc1ccccc1)C(=O)N[C@H](C(=O)N[C@@H](CCC(N)=O)C(=O)NC(C)(C)C(=O)N[C@@H](CC(C)C)C(=O)N[C@@H](CCC(=O)O)C(=O)N[C@@H](C)C(=O)NCC(=O)NCC(N)=O)C(C)C)C(=O)O)C(=O)O` [Peptide 79] (H-HSQGS[αMeF]TSDVSK[αMeF]LDSK([PEG2-PEG2-γGlu-γGlu-Palmitoyl])AAQD[αMeF]VQ[Aib]LEAGG-NH2; N-terminus assumed), in test [1], the concentration giving a half-maximal response (EC50) was found to be 1.73 pM and the “% Relative Potency Ratio” value worked out at 12.2. Further, in test [2], the EC50 was determined as 10.7 pM.

For `CCCCCCCCCCCCCCCCCC(=O)N[C@@H](CCC(=O)N[C@@H](CCC(=O)NCCOCCOCCC(=O)NCCOCCOCCC(=O)NCCCC[C@H](NC(=O)[C@H](CO)NC(=O)[C@H](CC(=O)O)NC(=O)[C@H](CC(C)C)NC(=O)[C@](C)(Cc1ccccc1)NC(=O)[C@H](CCCCN)NC(=O)[C@H](CO)NC(=O)[C@@H](NC(=O)[C@H](CC(=O)O)NC(=O)[C@H](CO)NC(=O)[C@@H](NC(=O)[C@](C)(Cc1ccccc1)NC(=O)[C@H](CO)NC(=O)CNC(=O)[C@H](CCC(N)=O)NC(=O)[C@H](CO)NC(=O)[C@@H](N)Cc1c[nH]cn1)[C@@H](C)O)C(C)C)C(=O)N[C@@H](C)C(=O)N[C@@H](C)C(=O)N[C@@H](CCC(N)=O)C(=O)N[C@@H](CC(=O)O)C(=O)N[C@@](C)(Cc1ccccc1)C(=O)N[C@H](C(=O)N[C@@H](CCC(=O)O)C(=O)NC(C)(C)C(=O)N[C@@H](CC(C)C)C(=O)N[C@@H](CCC(=O)O)C(=O)N[C@@H](C)C(=O)NCC(=O)NCC(N)=O)C(C)C)C(=O)O)C(=O)O` [Peptide 81] (H-HSQGS[αMeF]TSDVSK[αMeF]LDSK([PEG2-PEG2-γGlu-γGlu-Stearoyl])AAQD[αMeF]VE[Aib]LEAGG-NH2; N-terminus assumed), the EC50 in test [1] stood at 1.19 pM; in test [2] it was 13.5 pM. Further, in test [1], the “% Relative Potency Ratio” value was 22.6.

`CCCCCCCCCCCCCCCCCC(=O)N[C@@H](CCC(=O)N[C@@H](CCC(=O)NCCOCCOCCC(=O)NCCOCCOCCC(=O)NCCCC[C@H](NC(=O)[C@H](CO)NC(=O)[C@H](CC(=O)O)NC(=O)[C@H](CC(C)C)NC(=O)[C@](C)(Cc1ccccc1)NC(=O)[C@H](CCCCN)NC(=O)[C@H](CO)NC(=O)[C@@H](NC(=O)[C@H](CC(=O)O)NC(=O)[C@H](CO)NC(=O)[C@@H](NC(=O)[C@](C)(Cc1ccccc1)NC(=O)[C@H](CO)NC(=O)CNC(=O)[C@H](CCC(N)=O)NC(=O)[C@H](CO)NC(=O)[C@@H](N)Cc1c[nH]cn1)[C@@H](C)O)C(C)C)C(=O)N[C@@H](C)C(=O)N[C@@H](C)C(=O)N[C@@H](CCC(N)=O)C(=O)N[C@@H](CC(=O)O)C(=O)N[C@@](C)(Cc1ccccc1)C(=O)N[C@H](C(=O)N[C@@H](CCC(N)=O)C(=O)NC(C)(C)C(=O)N[C@H](C(=O)N[C@H](C(=O)N[C@@H](CC(N)=O)C(=O)N[C@H](C(N)=O)[C@@H](C)O)[C@@H](C)CC)[C@@H](C)CC)C(C)C)C(=O)O)C(=O)O` [Peptide 83] (H-HSQGS[αMeF]TSDVSK[αMeF]LDSK([PEG2-PEG2-γGlu-γGlu-Stearoyl])AAQD[αMeF]VQ[Aib]IINT-NH2): in test [1], the half-maximal effective concentration (EC50) came out at 1.04 pM and the “% Relative Potency Ratio” value is 29.6. For the same compound, the EC50 in test [2] stood at 15.6 pM.

For `CCCCCCCCCCCCCCCCCC(=O)N[C@@H](CCC(=O)N[C@@H](CCC(=O)NCCOCCOCCC(=O)NCCOCCOCCC(=O)NCCCC[C@H](NC(=O)[C@H](CO)NC(=O)[C@H](CC(=O)O)NC(=O)[C@H](CC(C)C)NC(=O)[C@](C)(Cc1ccccc1)NC(=O)[C@H](CCCCN)NC(=O)[C@H](CO)NC(=O)[C@@H](NC(=O)[C@H](CC(=O)O)NC(=O)[C@H](CO)NC(=O)[C@@H](NC(=O)[C@](C)(Cc1ccccc1)NC(=O)[C@H](CO)NC(=O)CNC(=O)[C@H](CCC(N)=O)NC(=O)[C@H](CO)NC(=O)[C@@H](N)Cc1c[nH]cn1)[C@@H](C)O)C(C)C)C(=O)N[C@@H](C)C(=O)N[C@@H](C)C(=O)N[C@@H](CCC(N)=O)C(=O)N[C@@H](CC(=O)O)C(=O)N[C@@](C)(Cc1ccccc1)C(=O)N[C@H](C(=O)N[C@@H](CCC(N)=O)C(=O)NC(C)(C)C(=O)N[C@@H](CC(C)C)C(=O)N[C@@H](CC(C)C)C(=O)N[C@@H](CC(N)=O)C(=O)N[C@H](C(N)=O)[C@@H](C)O)C(C)C)C(=O)O)C(=O)O` [Peptide 84] (H-HSQGS[αMeF]TSDVSK[αMeF]LDSK([PEG2-PEG2-γGlu-γGlu-Stearoyl])AAQD[αMeF]VQ[Aib]LLNT-NH2), in test [1], the concentration giving a half-maximal response (EC50) is 2.8 pM and the “% Relative Potency Ratio” value worked out at 31.7. Besides, the EC50 in test [2] was found to be 44.9 pM.

Take `CCCCCCCCCCCCCCCCCC(=O)N[C@@H](CCC(=O)N[C@@H](CCC(=O)NCCOCCOCCC(=O)NCCOCCOCCC(=O)NCCCC[C@H](NC(=O)[C@H](CO)NC(=O)[C@H](CC(=O)O)NC(=O)[C@H](CC(C)C)NC(=O)[C@](C)(Cc1ccccc1)NC(=O)[C@H](CCCCN)NC(=O)[C@H](CO)NC(=O)[C@@H](NC(=O)[C@H](CC(=O)O)NC(=O)[C@H](CO)NC(=O)[C@@H](NC(=O)[C@](C)(Cc1ccccc1)NC(=O)[C@H](CO)NC(=O)CNC(=O)[C@H](CCC(N)=O)NC(=O)[C@H](CO)NC(=O)[C@@H](N)Cc1c[nH]cn1)[C@@H](C)O)C(C)C)C(=O)N[C@@H](C)C(=O)N[C@@H](C)C(=O)N[C@@H](CCC(N)=O)C(=O)N[C@@H](CC(=O)O)C(=O)N[C@@](C)(Cc1ccccc1)C(=O)N[C@H](C(=O)N[C@@H](CCC(N)=O)C(=O)NC(C)(C)C(=O)N[C@H](C(=O)N[C@H](C(=O)N[C@@H](CCC(=O)O)C(=O)NCC(=O)NCC(N)=O)C(C)C)C(C)C)C(C)C)C(=O)O)C(=O)O` [Peptide 85] (H-HSQGS[αMeF]TSDVSK[αMeF]LDSK([PEG2-PEG2-γGlu-γGlu-Stearoyl])AAQD[αMeF]VQ[Aib]VVEGG-NH2; N-terminus assumed): in test [1], the EC50 worked out at 1.04 pM and the “% Relative Potency Ratio” value is 90.9. Moreover, the half-maximal effective concentration (EC50) in test [2] came to 47.7 pM.

For `CCCCCCCCCCCCCCCCCC(=O)N[C@@H](CCC(=O)N[C@@H](CCC(=O)NCCOCCOCCC(=O)NCCOCCOCCC(=O)NCCCC[C@H](NC(=O)[C@H](CO)NC(=O)[C@H](CC(=O)O)NC(=O)[C@H](CC(C)C)NC(=O)[C@](C)(Cc1ccccc1)NC(=O)[C@H](CCCCN)NC(=O)[C@H](CO)NC(=O)[C@@H](NC(=O)[C@H](CC(=O)O)NC(=O)[C@H](CO)NC(=O)[C@@H](NC(=O)[C@](C)(Cc1ccccc1)NC(=O)[C@H](CO)NC(=O)CNC(=O)[C@H](CCC(N)=O)NC(=O)[C@H](CO)NC(=O)[C@@H](N)Cc1c[nH]cn1)[C@@H](C)O)C(C)C)C(=O)N[C@@H](C)C(=O)N[C@@H](C)C(=O)N[C@@H](CCC(N)=O)C(=O)N[C@@H](CC(=O)O)C(=O)N[C@@](C)(Cc1ccccc1)C(=O)N[C@H](C(=O)N[C@@H](CCC(N)=O)C(=O)NC(C)(C)C(=O)N[C@H](C(=O)N[C@@H](C)C(=O)N[C@@H](CC(N)=O)C(N)=O)[C@@H](C)CC)C(C)C)C(=O)O)C(=O)O` [Peptide 86] (H-HSQGS[αMeF]TSDVSK[αMeF]LDSK([PEG2-PEG2-γGlu-γGlu-Stearoyl])AAQD[αMeF]VQ[Aib]IAN-NH2; N-terminus assumed), in test [1], the “% Relative Potency Ratio” value was 16.6. For the same compound, the EC50 in test [2] stood at 6.46 pM.

The term EC50 denotes the concentration at which the effect is half-maximal.

The values are drawn from patent publication US20250353891A1 (MEDIMMUNE LIMITED, priority 2022, published 2025).
